Test results published in patent US20220023289A1, “Application Of Pyrroloquinoline Quinone In Preparation Of Medicament Used For Preventing And Treating Acute Altitude Sickness And Acute Altitude Hypoxia Injury” (priority 2018, published 2022).

How the values were obtained:
[1] = tested on: rats exposed to acute altitude hypoxia; test: Endothelial function (serum endothelin-1, nitric oxide) in rats exposed to acute altitude hypoxia; type: in vivo, Wistar rat; settings: male rats, hypoxia, 14.63 mg/kg
Text: This method uses nitrate reductase specificity reduce NO^3− to NO^2−, and then determine the level of its concentration by displaying shades of color. Operate according to the kit instructions, measure the absorbance of each tube at a wavelength of 550 nm, and then calculate the content of nitric oxide of the sample to be tested according to the formula. To the coated microwells pre-coated with rat endothelin (endothelin-1) capture antibody, add in sequence specimens, standards, and HRP-labeled detection antibody, and then incubate and wash thoroughly. Use a substrate TMB for color development. TMB is converted into blue under the catalysis of peroxidase and converted into the final yellow color under the action of acid. The color intensity is positively correlated with the rat endothelin (endothelin-1) in the sample.

[2] = tested on: rats with acute altitude hypoxia injury; test: Oxidative stress indexes of rats with acute altitude hypoxia injury; type: in vivo, Wistar rat
Text: Operate according to the instructions, and then measure the absorbance value of each tube, and afterwards calculate the content of malondialdehyde in the sample to be tested according to the formula. […] The latter oxidizes hydroxylamine to form nitrite. It appears purplish red under the action of chromogenic agent. Measure its absorbance by a visible light spectrophotometer. When the measured sample contains superoxide dismutase, it has specific inhibitory effect on superoxide anion free radicals, make formed nitrite reduced. […] The superoxide dismutase activity in the tested sample can be calculated by formula calculation. […] The latter can form a stable complex with phenanthrophins and measure its antioxidant capacity by colorimetry. Operate according to the kit instructions, measure the absorbance of each tube at a wavelength of 520 nm, and then calculate the total antioxidant capacity in the sample to be tested according to the formula.

[3] = tested on: rats exposed to acute altitude hypoxia; test: Liver ATP and glycogen in rats exposed to acute altitude hypoxia; type: in vivo, Wistar rat
Procedure: Determination of adenosine triphosphate (ATP): Perform enzyme-linked immunosorbent assay by double-antibody one-step sandwich method. To the coated microwells pre-coated with rat adenosine triphosphate (ATP) capture antibody, add in sequence the specimens, standard, and HRP-labeled detection antibody, and then incubate and wash thoroughly. Use a substrate TMB for color development, TMB is converted into blue under the catalysis of peroxidase and converted into the final yellow color under the action of acid. The color intensity is positively correlated with the rat adenosine triphosphate (ATP) in the sample. […] Determination of liver glycogen (GC): Perform enzyme-linked immunosorbent assay by double-antibody one-step sandwich method. To the coated microwells pre-coated with rat liver glycogen (GC) capture antibody, add in sequence the specimens, standard, and HRP-labeled detection antibody, and then incubate and wash thoroughly. Use a substrate TMB for color development, TMB is converted into blue under the catalysis of peroxidase and converted into the final yellow color under the action of acid. The color intensity is positively correlated with the rat liver glycogen (GC) in the sample.

[4] = tested on: mice exposed to high altitude hypoxia; test: Exhaustive swimming experiment in mice exposed to high altitude hypoxia (6000 m); type: in vivo, Kunming mice; settings: for Exhausted swimming survival time: 7 days
Text: Select healthy male Kunming mice weight 18-22 g.

[5] = female rats, hypoxia, 0.91 mg/kg
[6] = female rats, hypoxia, 1.83 mg/kg
[7] = female rats, hypoxia, 3.66 mg/kg
[8] = female rats, hypoxia, 7.31 mg/kg
[9] = female rats, hypoxia, 14.63 mg/kg
[10] = female rats, normoxia, 3.66 mg/kg
[11] = male rats, hypoxia, 14.63 mg/kg

O=C(O)c1cc(C(=O)O)c2c(n1)C(=O)C(=O)c1cc(C(=O)O)[nH]c1-2 [PQQ, pyrroloquinoline quinone]
Endothelin-1 [1]: 42.45 ± 3.84 ng/mL | Nitric oxide [1]: 6.46 ± 1.44 µmol/L | Endo Dialdehyde [2, 5]: 15.07 ± 1.91 nmol/L | Superoxide dismutase [2, 5]: 66.11 ± 4.18 U/ml | Total antioxidants [2, 5]: 10.52 ± 1.08 U/ml | Endo Dialdehyde [2, 6]: 13.96 ± 1.33 nmol/L | Superoxide dismutase [2, 6]: 60.79 ± 2.56 U/ml | Total antioxidants [2, 6]: 10.06 ± 0.77 U/ml | Endo Dialdehyde [2, 7]: 13.73 ± 0.27 nmol/L | Superoxide dismutase [2, 7]: 56.82 ± 3.80 U/ml | Total antioxidants [2, 7]: 10.84 ± 0.47 U/ml | Endo Dialdehyde [2, 8]: 14.14 ± 2.68 nmol/L | Superoxide dismutase [2, 8]: 56.65 ± 2.97 U/ml | Total antioxidants [2, 8]: 10.37 ± 0.75 U/ml | Endo Dialdehyde [2, 9]: 14.81 ± 1.37 nmol/L | Superoxide dismutase [2, 9]: 56.16 ± 3.64 U/ml | Total antioxidants [2, 9]: 10.59 ± 1.65 U/ml | effect on malondialdehyde ([2]; female rats, normoxia): can slightly increase | effect on serum superoxide dismutase and total antioxidants ([2]; female rats, normoxia): no significant effects | Endo Dialdehyde [2, 10]: 14.39 ± 0.85 nmol/L | Superoxide dismutase [2, 10]: 52.21 ± 1.23 U/ml | Total antioxidants [2, 10]: 11.28 ± 0.83 U/ml | effect on serum superoxide dismutase activity ([2]; hypoxia exposed female rats): can increase | effect on serum total antioxidants and malondialdehyde ([2]; hypoxia exposed female rats): no significant effects | effect on serum superoxide dismutase activity ([2]; hypoxia exposed male rats): can increase | effect on serum total antioxidants and malondialdehyde ([2]; male rats): no significant effect | Malonaldehyde ([2]; male rats, hypoxia, 0.91 mg/kg): 2.79 ± 0.62 nmol/L | Superoxide dismutase ([2]; male rats, hypoxia, 0.91 mg/kg): 196.26 ± 4.15 U/ml | Total antioxidants ([2]; male rats, hypoxia, 0.91 mg/kg): 3.17 ± 1.40 U/ml | Malonaldehyde ([2]; male rats, hypoxia, 1.83 mg/kg): 2.89 ± 1.09 nmol/L | Superoxide dismutase ([2]; male rats, hypoxia, 1.83 mg/kg): 193.38 ± 4.53 U/ml | Total antioxidants ([2]; male rats, hypoxia, 1.83 mg/kg): 2.77 ± 1.10 U/ml | Malonaldehyde ([2]; male rats, hypoxia, 3.66 mg/kg): 3.9 ± 1.39 nmol/L | Superoxide dismutase ([2]; male rats, hypoxia, 3.66 mg/kg): 189.59 ± 5.46 U/ml | Total antioxidants ([2]; male rats, hypoxia, 3.66 mg/kg): 3.81 ± 0.97 U/ml | Malonaldehyde ([2]; male rats, hypoxia, 7.31 mg/kg): 3.15 ± 0.99 nmol/L | Superoxide dismutase ([2]; male rats, hypoxia, 7.31 mg/kg): 186.20 ± 6.32 U/ml | Total antioxidants ([2]; male rats, hypoxia, 7.31 mg/kg): 3.62 ± 1.94 U/ml | Malonaldehyde [2, 11]: 3.59 ± 1.15 nmol/L | Superoxide dismutase [2, 11]: 179.58 ± 6.32 U/ml | Total antioxidants [2, 11]: 1.49 ± 2.30 U/ml | effect on liver ATP and glycogen content ([3]; female rats, after hypoxia exposure and normoxia): no significant effects | liver Glycogen [3, 5]: 2.52 ± 0.36 ng/mL | liver ATP [3, 6]: 1.58 ± 0.27 µg/mL | liver Glycogen [3, 6]: 2.89 ± 0.57 ng/mL | liver ATP [3, 7]: 1.64 ± 0.37 µg/mL | liver Glycogen [3, 7]: 2.84 ± 0.67 ng/mL | liver Glycogen [3, 8]: 3.07 ± 0.19 ng/mL | liver Glycogen [3, 9]: 3.62 ± 0.38 ng/mL | liver ATP [3, 10]: 1.62 ± 0.13 µg/mL | liver Glycogen [3, 10]: 2.89 ± 0.28 ng/mL | effect on liver ATP and glycogen content ([3]; male rats): can increase | liver Glycogen ([3]; male rats, hypoxia, 0.91 mg/kg): 2.41 ± 0.41 ng/mL | liver Glycogen ([3]; male rats, hypoxia, 1.83 mg/kg): 2.23 ± 0.17 ng/mL | liver Glycogen ([3]; male rats, hypoxia, 3.66 mg/kg): 2.70 ± 0.84 ng/mL | liver Glycogen ([3]; male rats, hypoxia, 7.31 mg/kg): 2.86 ± 0.43 ng/mL | liver Glycogen [3, 11]: 2.55 ± 0.28 ng/mL | start time of exhaustion swimming death ([4]; male mice, 6000 m): delayed | increasing rate of survival time ([4]; male mice, 6000 m, 1.32 mg/kg): 52.49% | increasing rate of survival time ([4]; male mice, 6000 m, 2.64 mg/kg): 109.05% | increasing rate of survival time ([4]; male mice, 6000 m, 5.28 mg/kg): 32.54% | increasing rate of survival time ([4]; male mice, 6000 m, 10.56 mg/kg): 49.30% | increasing rate of survival time ([4]; male mice, 6000 m, 21.12 mg/kg): 101.47% | Exhausted swimming survival time ([4]; male mice, 6000 m, 1.32 mg/kg): 199.21 ± 98.54 min | Exhausted swimming survival time ([4]; male mice, 6000 m, 2.64 mg/kg): 273.10 ± 63.07 min | Exhausted swimming survival time ([4]; male mice, 6000 m, 5.28 mg/kg): 173.15 ± 116.32 min | Exhausted swimming survival time ([4]; male mice, 6000 m, 10.56 mg/kg): 195.04 ± 59.81 min | Exhausted swimming survival time ([4]; male mice, 6000 m, 21.12 mg/kg): 263.20 ± 48.27 min | time at which mice are completely dead ([4]; male mice, 6000 m, each PQQ dose group): about 400 minutes | effect on survival time after exhausting swimming / working ability under hypoxia ([4]; mice under low oxygen exposure): can prolong the survival time of mice after exhausting swimming
